# Measured values published in patent US11524968B2, “Heterocyclic compound as a protein kinase inhibitor” (HK inno.N Corporation, priority 2017, dated 2022).
# Target: JAK1 (Homo sapiens (Human), UniProt P23458)
# Experiment: Analysis of JAK1 activity inhibition ability (ADP-Glo Kinase Assay)
# Type: biochemical
# Details: JAK1 enzyme, ADP-Glo luminescence, ATP 250 uM, IRS-itide substrate, 30° C. 40 minutes; read-out: IC50
# Experimental: Test Example 1: Analysis of JAK1 Activity Inhibition Ability of Compound of Formula 1 (ADP-Glo™ Kinase Assay)
# A JAK inhibition ability of a compound according to the present invention was identified as follows.
# A control material and a test material were prepared for each concentration, in such a way that they were diluted by means of DMSO. At the same time, ATP (250 uM) and JAK substrate (JAK1, IRS-itide 40 ng/mL) were prepared, in such a way that they were diluted by means of kinase buffer (40 mM Tris-HCl pH 7.5, 20 mM MgCl2, 0.5 mg/mL BSA, 50 uM DTT).
# A test drug for each concentration, substrate, ATP and JAK enzyme were mixed in an eppendorf tube, and reacted in a 30° C. incubator for 40 minutes.
# ADP-Glo™ reagent contained in ADP-Glo™ Kinase Enzyme System (Promega, USA, V9571) was added into each eppendorf tube, and reacted in a 30° C. incubator for 40 minutes. A kinase detection reagent contained in ADP-Go™ Kinase Enzyme System was inserted into the eppendorf tube, then an integration time was set to 1 second by using Wallac Victor 2™, then luminescence was measured, and then JAKs phosphorylation inhibition ability of the test material was analyzed. The concentration of the compound, which causes 50% of the JAK enzyme activity inhibition in comparison With the control group, was determined as IC50 (nM) of an inhibitor, wherein the results thereof are shown in a following table 1.
# Sequence of JAK1 (P23458 whole entry): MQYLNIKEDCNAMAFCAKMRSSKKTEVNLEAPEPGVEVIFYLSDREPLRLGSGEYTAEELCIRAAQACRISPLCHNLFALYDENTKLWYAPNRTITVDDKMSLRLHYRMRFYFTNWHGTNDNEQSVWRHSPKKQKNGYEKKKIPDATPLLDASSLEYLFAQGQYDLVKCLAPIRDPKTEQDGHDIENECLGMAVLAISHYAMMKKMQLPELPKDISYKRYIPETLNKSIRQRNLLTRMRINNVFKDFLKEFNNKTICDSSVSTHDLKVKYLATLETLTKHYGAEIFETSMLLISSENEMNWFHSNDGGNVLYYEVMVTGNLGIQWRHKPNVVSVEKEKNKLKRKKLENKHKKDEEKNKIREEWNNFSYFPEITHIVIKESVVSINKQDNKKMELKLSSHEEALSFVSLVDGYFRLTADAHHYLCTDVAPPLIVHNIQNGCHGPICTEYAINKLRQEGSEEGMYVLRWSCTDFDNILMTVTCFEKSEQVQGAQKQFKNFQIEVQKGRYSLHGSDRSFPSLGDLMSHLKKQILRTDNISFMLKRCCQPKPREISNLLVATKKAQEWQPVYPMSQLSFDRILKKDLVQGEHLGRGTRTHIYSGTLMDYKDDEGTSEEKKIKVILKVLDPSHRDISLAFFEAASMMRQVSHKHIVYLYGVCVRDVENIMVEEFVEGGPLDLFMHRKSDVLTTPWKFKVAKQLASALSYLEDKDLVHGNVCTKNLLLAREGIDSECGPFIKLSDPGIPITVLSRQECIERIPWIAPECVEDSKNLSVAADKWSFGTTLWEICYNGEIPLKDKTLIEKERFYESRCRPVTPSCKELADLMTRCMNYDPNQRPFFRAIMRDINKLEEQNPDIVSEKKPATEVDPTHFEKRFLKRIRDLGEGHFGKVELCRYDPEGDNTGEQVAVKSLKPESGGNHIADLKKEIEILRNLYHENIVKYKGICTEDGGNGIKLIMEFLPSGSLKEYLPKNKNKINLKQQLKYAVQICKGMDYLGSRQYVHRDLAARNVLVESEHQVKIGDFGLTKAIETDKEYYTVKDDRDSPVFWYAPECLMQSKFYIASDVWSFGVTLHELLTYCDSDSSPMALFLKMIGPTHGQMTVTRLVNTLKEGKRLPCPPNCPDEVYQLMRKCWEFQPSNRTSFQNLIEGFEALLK
row,IC50,Structure (SMILES)
1,< 20 nM,"O=C(Nc1cc(-c2ccc(NS(=O)(=O)CC3CCOC3)cc2)c2cc[nH]c2n1)C1CC1 (stereo not shown) [Example 54, N-(4-(4-(((tetrahydrofuran-3-yl)methyl)sulfonamido)phenyl)-1H-pyrrolo[2,3-b]pyridin-6-yl)cyclopropanecarboxamide]"
2,< 20 nM,"O=C(Nc1cc(-c2ccc(NS(=O)(=O)CC3CCOCC3)cc2)c2cc[nH]c2n1)C1CC1 [Example 55, N-(4-(4-(((tetrahydro-2H-pyran-4-yl)methyl)sulfonamido)phenyl)-1H-pyrrolo[2,3-b]pyridin-6-yl)cyclopropanecarboxamide]"
3,< 20 nM,"CS(=O)(=O)CCS(=O)(=O)Nc1ccc(-c2cc(NC(=O)C3CC3)nc3[nH]ccc23)cc1 [Example 56, N-(4-(4-((2-(methylsulfonyl)ethyl)sulfonamido)phenyl)-1H-pyrrolo[2,3-b]pyridin-6-yl)cyclopropanecarboxamide]"
4,< 20 nM,"O=C(Nc1cc(-c2ccc(NS(=O)(=O)C3CC3)cc2)c2cc[nH]c2n1)C1CC1 [Example 57, N-(4-(4-(cyclopropanesulfonamido)phenyl)-1H-pyrrolo[2,3-b]pyridin-6-yl)cyclopropanecarboxamide]"
5,< 20 nM,"O=C(Nc1cc(-c2ccc(NS(=O)(=O)C3CCC3)cc2)c2cc[nH]c2n1)C1CC1 [Example 58, N-(4-(4-(cyclobutanesulfonamido)phenyl)-1H-pyrrolo[2,3-b]pyridin-6-yl)cyclopropanecarboxamide]"
6,> 200 nM,"CCS(=O)(=O)Nc1ccc(-c2cc(NC(=O)C3CC3)nc3[nH]ccc23)cc1C#N [Example 59, N-(4-(3-cyano-4-(ethylsulfonamido)phenyl)-1H-pyrrolo[2,3-b]pyridin-6-yl)cyclopropanecarboxamide]"
7,> 200 nM,"CCS(=O)(=O)Nc1ccc(-c2cc(NC(=O)C3CC3)nc3c2ccn3C)cc1F [Example 60, N-(4-(4-(ethylsulfonamido)-3-fluorophenyl)-1-methyl-1H-pyrrolo[2,3-b]pyridin-6-yl)cyclopropanecarboxamide]"
8,> 200 nM,"CCCn1ccc2c(-c3ccc(NS(=O)(=O)CC)c(F)c3)cc(NC(=O)C3CC3)nc21 [Example 61, N-(4-(4-(ethylsulfonamido)-3-fluorophenyl)-1-propyl-1H-pyrrolo[2,3-b]pyridin-6-yl)cyclopropanecarboxamide]"
9,> 200 nM,"CCS(=O)(=O)Nc1ccc(-c2cc(NC(=O)C3CC3)nc3c2ccn3CC#N)cc1F [Example 62, N-(1-(cyanomethyl)-4-(4-(ethylsulfonamido)-3-fluorophenyl)-1H-pyrrolo[2,3-b]pyridin-6-yl)cyclopropanecarboxamide]"
10,20 to 200 nM,"CCCS(=O)(=O)Nc1ccc(-c2cc(NC(=O)C3CC3)nc3[nH]ccc23)cc1Cl [Example 63, N-(4-(3-chloro-4-(propylsulfonamido)phenyl)-1H-pyrrolo[2,3-b]pyridin-6-yl)cyclopropanecarboxamide]"
11,< 20 nM,"CCS(=O)(=O)Nc1ccc(-c2cc(NC(=O)C3CC3)nc3[nH]ccc23)cc1C [Example 64, N-(4-(4-(ethylsulfonamido)-3-methylphenyl)-1H-pyrrolo[2,3-b]pyridin-6-yl)cyclopropanecarboxamide]"
12,< 20 nM,"CCCS(=O)(=O)Nc1ccc(-c2cc(NC(=O)C3CC3)nc3[nH]ccc23)cc1C [Example 65, N-(4-(3-methyl-4-(propylsulfonamido)phenyl)-1H-pyrrolo[2,3-b]pyridin-6-yl)cyclopropanecarboxamide]"
13,< 20 nM,"CCCS(=O)(=O)Nc1ccc(-c2cc(NC(=O)C3CC3)nc3[nH]ccc23)cc1F [Example 66, N-(4-(3-fluoro-4-(propylsulfonamido)phenyl)-1H-pyrrolo[2,3-b]pyridin-6-yl)cyclopropanecarboxamide]"
14,< 20 nM,"CCCCS(=O)(=O)Nc1ccc(-c2cc(NC(=O)C3CC3)nc3[nH]ccc23)cc1F [Example 67, N-(4-(4-(butylsulfonamido)-3-fluorophenyl)-1H-pyrrolo[2,3-b]pyridin-6-yl)cyclopropanecarboxamide]"
15,< 20 nM,"O=C(Nc1cc(-c2ccc(NS(=O)(=O)C3CCCCC3)c(F)c2)c2cc[nH]c2n1)C1CC1 [Example 68, N-(4-(4-(cyclohexanesulfonamido)-3-fluorophenyl)-1H-pyrrolo[2,3-b]pyridin-6-yl)cyclopropanecarboxamide]"
16,< 20 nM,"O=C(Nc1cc(-c2ccc(NS(=O)(=O)C3CC3)c(F)c2)c2cc[nH]c2n1)C1CC1 [Example 69, N-(4-(4-(cyclopropanesulfonamido)-3-fluorophenyl)-1H-pyrrolo[2,3-b]pyridin-6-yl)cyclopropanecarboxamide]"
17,20 to 200 nM,"O=C(Nc1cc(-c2ccc(NS(=O)(=O)CC3CCCCC3)c(F)c2)c2cc[nH]c2n1)C1CC1 [Example 70, N-(4-(4-((cyclohexylmethyl)sulfonamido)-3-fluorophenyl)-1H-pyrrolo[2,3-b]pyridin-6-yl)cyclopropanecarboxamide]"
18,< 20 nM,"C=CCS(=O)(=O)Nc1ccc(-c2cc(NC(=O)C3CC3)nc3[nH]ccc23)cc1F [Example 71, N-(4-(4-(allylsulfonamido)-3-fluorophenyl)-1H-pyrrolo[2,3-b]pyridin-6-yl)cyclopropanecarboxamide]"
19,< 20 nM,"O=C(Nc1cc(-c2ccc(NS(=O)(=O)CC3CCOC3)c(F)c2)c2cc[nH]c2n1)C1CC1 (stereo not shown) [Example 72, N-(4-(3-fluoro-4-(((tetrahydrofuran-3-yl)methyl)sulfonamido)phenyl)-1H-pyrrolo[2,3-b]pyridin-6-yl)cyclopropanecarboxamide]"
20,< 20 nM,"O=C(Nc1cc(-c2ccc(NS(=O)(=O)CC3CCOCC3)c(F)c2)c2cc[nH]c2n1)C1CC1 [Example 73, N-(4-(3-fluoro-4-(((tetrahydro-2H-pyran-4-yl)methyl)sulfonamido)phenyl)-1H-pyrrolo[2,3-b]pyridin-6-yl)cyclopropanecarboxamide]"
21,> 200 nM,"CCS(=O)(=O)Nc1ccc(-c2cc(NC(=O)C3CC3)nc3[nH]c(C)cc23)cc1 [Example 74, N-(4-(4-(ethylsulfonamido)phenyl)-2-methyl-1H-pyrrolo[2,3-b]pyridin-6-yl)cyclopropanecarboxamide]"
22,< 20 nM,"CC(C)CS(=O)(=O)Nc1ccc(-c2cc(NC(=O)C3CC3)nc3[nH]ccc23)cc1F [Example 75, N-(4-(3-fluoro-4-((2-methylpropyl)sulfonamido)phenyl)-1H-pyrrolo[2,3-b]pyridin-6-yl)cyclopropanecarboxamide]"
23,< 20 nM,"O=C(Nc1cc(-c2ccc(NS(=O)(=O)CCCF)c(F)c2)c2cc[nH]c2n1)C1CC1 [Example 76, N-(4-(3-fluoro-4-((3-fluoropropyl)sulfonamido)phenyl)-1H-pyrrolo[2,3-b]pyridin-6-yl)cyclopropanecarboxamide]"
24,< 20 nM,"N#CCCCS(=O)(=O)Nc1ccc(-c2cc(NC(=O)C3CC3)nc3[nH]ccc23)cc1F [Example 77, N-(4-(4-((3-cyanopropyl)sulfonamido)-3-fluorophenyl)-1H-pyrrolo[2,3-b]pyridin-6-yl)cyclopropanecarboxamide]"
25,< 20 nM,"O=C(Nc1cc(-c2ccc(NS(=O)(=O)C3CCC3)c(F)c2)c2cc[nH]c2n1)C1CC1 [Example 78, N-(4-(4-(cyclobutanesulfonamido)-3-fluorophenyl)-1H-pyrrolo[2,3-b]pyridin-6-yl)cyclopropanecarboxamide]"
